According to patent publication US20250367166A1, “NEXT GENERATION DIPROVOCIMS THAT ACTIVATE THE INNATE AND ADAPTIVE IMMUNE RESPONSE” (The Scripps Research Institute, priority 2022, published 2025):
Where two headings read alike, the source gives them in different places.

Key:
TLR1/TLR2 [1] = target: TLR1/TLR2 (Mus musculus, UniProt Q9EPQ1+Q9QUN7); assay: TNF-α release from thioglycolate-elicited mouse peritoneal macrophages (ELISA); settings: for Emax: 4 h, read-out: Efficacy (magnitude) of response versus diprovocim-1 (100%), mouse macrophages; for EC50: read-out: EC50 (nM) (mouse): EC50 TNF-α release from mouse macrophages
Sequence of TLR1/TLR2 (Mus musculus, UniProt Q9EPQ1+Q9QUN7) (Q9EPQ1 26-795): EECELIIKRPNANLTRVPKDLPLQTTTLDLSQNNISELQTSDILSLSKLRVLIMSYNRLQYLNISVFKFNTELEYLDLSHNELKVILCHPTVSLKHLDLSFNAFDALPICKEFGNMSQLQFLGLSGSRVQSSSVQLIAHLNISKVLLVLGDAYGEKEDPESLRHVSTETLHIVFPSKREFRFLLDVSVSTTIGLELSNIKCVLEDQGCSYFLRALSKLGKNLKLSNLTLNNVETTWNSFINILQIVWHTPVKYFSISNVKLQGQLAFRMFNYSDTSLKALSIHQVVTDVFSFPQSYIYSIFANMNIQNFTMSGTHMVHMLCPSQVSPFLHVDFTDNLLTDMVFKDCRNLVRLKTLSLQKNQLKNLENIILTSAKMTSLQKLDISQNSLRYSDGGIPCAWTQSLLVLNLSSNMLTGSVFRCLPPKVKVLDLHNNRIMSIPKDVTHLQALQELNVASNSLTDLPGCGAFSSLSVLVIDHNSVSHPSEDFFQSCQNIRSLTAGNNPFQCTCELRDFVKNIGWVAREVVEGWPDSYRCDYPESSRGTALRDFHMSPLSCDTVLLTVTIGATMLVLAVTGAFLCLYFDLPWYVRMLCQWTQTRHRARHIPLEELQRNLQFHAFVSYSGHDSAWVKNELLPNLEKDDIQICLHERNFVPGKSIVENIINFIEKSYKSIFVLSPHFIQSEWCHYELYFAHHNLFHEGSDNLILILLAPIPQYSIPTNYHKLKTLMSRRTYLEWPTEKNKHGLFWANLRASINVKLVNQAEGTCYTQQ
Sequence of TLR1/TLR2 (Mus musculus, UniProt Q9EPQ1+Q9QUN7) (Q9QUN7 25-784): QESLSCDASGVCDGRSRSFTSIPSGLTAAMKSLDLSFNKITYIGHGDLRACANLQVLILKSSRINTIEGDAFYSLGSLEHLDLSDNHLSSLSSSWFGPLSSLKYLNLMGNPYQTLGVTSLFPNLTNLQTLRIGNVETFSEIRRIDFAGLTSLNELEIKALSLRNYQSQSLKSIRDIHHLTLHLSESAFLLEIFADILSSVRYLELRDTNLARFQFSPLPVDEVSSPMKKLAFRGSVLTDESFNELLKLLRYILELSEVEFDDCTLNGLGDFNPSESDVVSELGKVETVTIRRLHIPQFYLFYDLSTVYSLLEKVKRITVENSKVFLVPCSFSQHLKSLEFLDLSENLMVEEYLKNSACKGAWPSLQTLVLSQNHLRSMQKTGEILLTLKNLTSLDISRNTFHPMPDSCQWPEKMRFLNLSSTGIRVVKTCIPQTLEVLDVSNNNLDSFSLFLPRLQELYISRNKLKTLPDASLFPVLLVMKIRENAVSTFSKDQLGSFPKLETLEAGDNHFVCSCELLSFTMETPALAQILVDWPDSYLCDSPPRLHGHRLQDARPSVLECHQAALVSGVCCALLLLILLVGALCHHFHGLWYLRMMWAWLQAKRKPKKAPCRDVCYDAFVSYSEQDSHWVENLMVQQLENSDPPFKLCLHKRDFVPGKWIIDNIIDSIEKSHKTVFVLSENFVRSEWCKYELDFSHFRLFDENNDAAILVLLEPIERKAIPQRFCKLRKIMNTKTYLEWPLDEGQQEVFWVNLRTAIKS

TLR1/TLR2 [2] = target: TLR1/TLR2 (Homo sapiens, UniProt O60603+Q15399); assay: TNF-α release from PMA-differentiated human THP-1 cells (ELISA); settings: for Emax: THP-1, 4 h, read-out: Efficacy (magnitude) of response versus diprovocim-1 (100%), THP-1; for EC50: read-out: EC50 (nM) (THP-1): EC50 TNF-α release from human THP-1 cells;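 on all read-outs here: cells exposed to graded compound concentrations for 4 h, TNF-α quantified in supernatant, LPS as positive and DMSO as negative control, values are duplicate means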
Sequence of TLR1/TLR2 (Homo sapiens, UniProt O60603+Q15399) (Q15399 25-786): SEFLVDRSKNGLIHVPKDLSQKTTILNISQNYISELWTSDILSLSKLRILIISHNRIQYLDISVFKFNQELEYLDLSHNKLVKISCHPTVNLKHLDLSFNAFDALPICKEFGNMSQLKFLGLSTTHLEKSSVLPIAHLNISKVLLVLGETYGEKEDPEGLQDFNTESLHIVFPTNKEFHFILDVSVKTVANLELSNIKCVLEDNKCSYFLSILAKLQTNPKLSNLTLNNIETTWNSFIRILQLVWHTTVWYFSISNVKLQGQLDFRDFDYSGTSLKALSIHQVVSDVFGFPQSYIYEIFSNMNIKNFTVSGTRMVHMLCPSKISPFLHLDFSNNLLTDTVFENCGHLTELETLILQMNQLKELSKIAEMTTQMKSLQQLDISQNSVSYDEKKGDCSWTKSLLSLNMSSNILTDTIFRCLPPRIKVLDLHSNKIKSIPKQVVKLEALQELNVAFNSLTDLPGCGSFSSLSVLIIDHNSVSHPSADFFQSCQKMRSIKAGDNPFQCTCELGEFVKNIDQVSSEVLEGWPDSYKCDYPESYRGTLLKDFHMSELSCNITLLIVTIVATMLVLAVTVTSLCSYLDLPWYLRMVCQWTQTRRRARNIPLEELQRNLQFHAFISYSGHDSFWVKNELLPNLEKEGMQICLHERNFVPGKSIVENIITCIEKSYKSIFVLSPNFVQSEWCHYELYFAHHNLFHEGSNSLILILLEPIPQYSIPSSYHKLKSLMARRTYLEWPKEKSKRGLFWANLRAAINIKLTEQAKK
Sequence of TLR1/TLR2 (Homo sapiens, UniProt O60603+Q15399) (O60603 21-784): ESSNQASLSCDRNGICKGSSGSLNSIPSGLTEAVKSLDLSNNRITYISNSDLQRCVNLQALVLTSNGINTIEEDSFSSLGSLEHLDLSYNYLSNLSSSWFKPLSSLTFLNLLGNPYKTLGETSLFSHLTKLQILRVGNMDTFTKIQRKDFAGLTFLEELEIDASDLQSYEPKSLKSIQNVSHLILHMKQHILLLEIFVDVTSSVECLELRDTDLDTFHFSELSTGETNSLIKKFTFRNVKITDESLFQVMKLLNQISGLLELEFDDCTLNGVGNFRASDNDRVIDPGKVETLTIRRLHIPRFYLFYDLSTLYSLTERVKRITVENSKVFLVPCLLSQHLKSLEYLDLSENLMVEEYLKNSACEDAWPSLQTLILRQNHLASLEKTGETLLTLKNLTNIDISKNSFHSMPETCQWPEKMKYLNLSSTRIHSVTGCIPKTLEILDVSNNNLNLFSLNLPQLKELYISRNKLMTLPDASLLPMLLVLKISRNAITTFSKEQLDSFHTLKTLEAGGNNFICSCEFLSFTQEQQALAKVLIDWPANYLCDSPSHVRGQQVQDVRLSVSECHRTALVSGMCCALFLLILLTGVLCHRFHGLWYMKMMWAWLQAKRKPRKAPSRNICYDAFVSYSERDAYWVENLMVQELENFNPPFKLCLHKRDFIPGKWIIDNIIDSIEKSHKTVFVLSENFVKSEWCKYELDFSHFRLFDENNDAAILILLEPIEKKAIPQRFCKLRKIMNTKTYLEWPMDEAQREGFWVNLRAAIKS

Structure (SMILES) | Emax (TLR1/TLR2 [1]) [%] | EC50 (TLR1/TLR2 [1]; Table 1) [nM] | Emax (TLR1/TLR2 [2]) [%] | EC50 (TLR1/TLR2 [2]; Table 1) [nM] | EC50 (TLR1/TLR2 [1]; Table 6) [nM] | EC50 (TLR1/TLR2 [2]; Table 6) [nM] | EC50 (TLR1/TLR2 [1]; Table 3) [nM] | EC50 (TLR1/TLR2 [2]; Table 3) [nM] | EC50 (TLR1/TLR2 [1]; Table 5) [nM] | EC50 (TLR1/TLR2 [2]; Table 5) [nM]
C#CCCCCCCCCCCCCNC(=O)[C@@H]1CN(C(=O)c2ccc(C(=O)N3C[C@@H](C(=O)N[C@H]4C[C@@H]4c4ccccc4)[C@H](C(=O)N[C@H]4C[C@@H]4c4ccccc4)C3)cc2)C[C@H]1C(=O)N[C@H]1C[C@@H]1c1ccccc1 [Compound 19, (3S,4S)-1-(4-((3S,4S)-3,4-Bis(((1S,2R)-2-phenylcyclo-propyl)carbamoyl)pyrrolidine-1-carbonyl)-benzoyl)-N^3-((1S,2R)-2-phenylcyclopropyl)-N^4-(tetradec-13-yn-1-yl)pyrrolidine-3,4-dicarboxamide] | 180 | 1.3 | 120 | 0.04 |  |  |  |  |  | 
CC(C)(C)OC(=O)N[C@@H](COCc1ccccc1)C(=O)OCCCCCCCCCCCCNC(=O)[C@@H]1CN(C(=O)c2ccc(C(=O)N3C[C@@H](C(=O)N[C@H]4C[C@@H]4c4ccccc4)[C@H](C(=O)N[C@H]4C[C@@H]4c4ccccc4)C3)cc2)C[C@H]1C(=O)N[C@H]1C[C@@H]1c1ccccc1 [Compound 64, (S)-12-((3S,4S)-1-(4-((3S,4S)-3,4-Bis(((1S,2R)-2-phenylcyclopropyl)carbamoyl)pyrrolidine-1-carbonyl)-benzoyl)-4-(((1S,2R)-2-phenylcyclopropyl)carbamoyl)-pyrrolidine-3-carboxamido)dodecyl 3-(benzyloxy)-2-((tert-butoxycarbonyl)amino)propanoate] | 370 |  | 100 |  |  |  |  |  | 30 | 0.15
CC[C@H](C)[C@H](NC(=O)OC(C)(C)C)C(=O)OCCCCCCCCCCCCNC(=O)[C@@H]1CN(C(=O)c2ccc(C(=O)N3C[C@@H](C(=O)N[C@H]4C[C@@H]4c4ccccc4)[C@H](C(=O)N[C@H]4C[C@@H]4c4ccccc4)C3)cc2)C[C@H]1C(=O)N[C@H]1C[C@@H]1c1ccccc1 [Compound 61, (2S,3S)-12-((3S,4S)-1-(4-((3S,4S)-3,4-Bis(((1S,2R)-2-phenylcyclopropyl)carbamoyl)pyrrolidine-1-carbonyl)-benzoyl)-4-(((1S,2R)-2-phenylcyclopropyl)carbamoyl)-pyrrolidine-3-carboxamido)-dodecyl 2-((tert-butoxy-carbonyl)amino)-3-methylpentanoate] | 140 |  | 100 |  |  |  |  |  | 50 | 9
NCCCCCCCCCCCCNC(=O)[C@@H]1CN(C(=O)c2ccc(C(=O)N3C[C@@H](C(=O)N[C@H]4C[C@@H]4c4ccccc4)[C@H](C(=O)N[C@H]4C[C@@H]4c4ccccc4)C3)cc2)C[C@H]1C(=O)N[C@H]1C[C@@H]1c1ccccc1 [Compound 16, (3S,4S)—N^3-(12-Aminododecyl)-1-(4-((3S,4S)-3,4-bis-(((1S,2R)-2-phenylcyclopropyl)carbamoyl)-pyrrolidine-1-carbonyl)benzoyl)-N^4-((1S,2R)-2-phenylcyclopropyl)-pyrrolidine-3,4-dicarboxamide] | 130 | 10 | 140 | 0.8 |  |  |  |  |  | 
O=C(NCCCCCCO)[C@@H]1CN(C(=O)c2ccc(C(=O)N3C[C@@H](C(=O)N[C@H]4C[C@@H]4c4ccccc4)[C@H](C(=O)N[C@H]4C[C@@H]4c4ccccc4)C3)cc2)C[C@H]1C(=O)N[C@H]1C[C@@H]1c1ccccc1 [Compound 10, (3S,4S)-1-(4-((3S,4S)-3,4-Bis(((1S,2R)-2-phenyl-cyclo-propyl)carbamoyl)pyrrolidine-1-carbonyl)-benzoyl)-N^3-(6-hydroxyhexyl)-N^4-((1S,2R)-2-phenyl-cyclopropyl)-pyrrolidine-3,4-dicarboxamide] |  | 180 |  | 90 |  |  |  |  |  | 

Further lines, with some results ahead:

Emax (TLR1/TLR2 [1]) [%] | EC50 (TLR1/TLR2 [1]; Table 1) [nM] | Emax (TLR1/TLR2 [2]) [%] | EC50 (TLR1/TLR2 [2]; Table 1) [nM] | EC50 (TLR1/TLR2 [1]; Table 6) [nM] | EC50 (TLR1/TLR2 [2]; Table 6) [nM] | EC50 (TLR1/TLR2 [1]; Table 3) [nM] | EC50 (TLR1/TLR2 [2]; Table 3) [nM] | Structure (SMILES) | EC50 (TLR1/TLR2 [1]; Table 5) [nM] | EC50 (TLR1/TLR2 [2]; Table 5) [nM]
160 |  | 110 |  | 36 | 13.4 |  |  | CC(C)(C)OC(=O)c1ccc(C(=O)NCCOCCCCCCCCCCCCNC(=O)[C@@H]2CN(C(=O)c3ccc(C(=O)N4C[C@@H](C(=O)N[C@H]5C[C@@H]5c5ccccc5)[C@H](C(=O)N[C@H]5C[C@@H]5c5ccccc5)C4)cc3)C[C@H]2C(=O)N[C@H]2C[C@@H]2c2ccccc2)cc1 [Compound 85, tert-Butyl 4-((2-((12-((3S,4S)-1-(4-((3S,4S)-3,4-bis-(((1S,2R)-2-phenylcyclopropyl)carbamoyl)-pyrrolidine-1-carbonyl)benzoyl)-4-(((1S,2R)-2-phenylcyclopropyl)-carbamoyl)pyrrolidine-3-carboxamido)dodecyl)-oxy)ethyl)carbamoyl)benzoate] |  | 
 | 5 |  | 0.5 |  |  |  |  | O=C(NCCCCCCCCCCCCS)[C@@H]1CN(C(=O)c2ccc(C(=O)N3C[C@@H](C(=O)N[C@H]4C[C@@H]4c4ccccc4)[C@H](C(=O)N[C@H]4C[C@@H]4c4ccccc4)C3)cc2)C[C@H]1C(=O)N[C@H]1C[C@@H]1c1ccccc1 [Compound 21, (3S,4S)-1-(4-((3S,4S)-3,4-Bis(((1S,2R)-2-phenyl-cyclopropyl)carbamoyl)pyrrolidine-1-carbonyl)-benzoyl)-N^3-(12-mercaptododecyl)-N^4-((1S,2R)-2-phenyl-cyclo-propyl)pyrrolidine-3,4-dicarboxamide] |  | 
380 | 2.6 | 90 | 0.15 |  |  |  |  | O=C(NCCCCCCCCc1ccc(O)cc1)[C@@H]1CN(C(=O)c2ccc(C(=O)N3C[C@@H](C(=O)N[C@H]4C[C@@H]4c4ccccc4)[C@H](C(=O)N[C@H]4C[C@@H]4c4ccccc4)C3)cc2)C[C@H]1C(=O)N[C@H]1C[C@@H]1c1ccccc1 [Compound 26, (3S,4S)-1-(4-((3S,4S)-3,4-Bis(((1S,2R)-2-phenylcyclo-propyl)carbamoyl)pyrrolidine-1-carbonyl)-benzoyl)-N^3-(8-(4-hydroxyphenyl)octyl)-N^4-((1S,2R)-2-phenylcyclo-propyl)pyrrolidine-3,4-dicarboxamide] |  | 
100 |  | 100 |  |  |  | 3.5 | 0.7 | O=C(CNC(=O)C(F)(F)F)OCCCCCCCCCCCCNC(=O)[C@@H]1CN(C(=O)c2ccc(C(=O)N3C[C@@H](C(=O)N[C@H]4C[C@@H]4c4ccccc4)[C@H](C(=O)N[C@H]4C[C@@H]4c4ccccc4)C3)cc2)C[C@H]1C(=O)N[C@H]1C[C@@H]1c1ccccc1 [Compound 41, 12-((3S,4S)-1-(4-((3S,4S)-3,4-Bis(((1S,2R)-2-phenyl-cyclopropyl)carbamoyl)pyrrolidine-1-carbonyl)benzoyl)-4-(((1S,2R)-2-phenylcyclopropyl)-carbamoyl)pyrrolidine-3-carboxamido)-dodecyl 2-(2,2,2-trifluoroacetamido)acetate] |  | 
170 |  | 100 |  |  |  | 375 | 56 | O=C(CNC(=O)OCC1c2ccccc2-c2ccccc21)OCCCCCCCCCCCCNC(=O)[C@@H]1CN(C(=O)c2ccc(C(=O)N3C[C@@H](C(=O)N[C@H]4C[C@@H]4c4ccccc4)[C@H](C(=O)N[C@H]4C[C@@H]4c4ccccc4)C3)cc2)C[C@H]1C(=O)N[C@H]1C[C@@H]1c1ccccc1 [Compound 38, 12-((3S,4S)-1-(4-((3S,4S)-3,4-Bis(((1S,2R)-2-phenyl-cyclopropyl)carbamoyl)pyrrolidine-1-carbonyl)benzoyl)-4-(((1S,2R)-2-phenylcyclopropyl)carbamoyl)pyrrolidine-3-carboxamido)-dodecyl 2-((((9H-fluoren-9-yl)methoxy)carbonyl)amino)acetate] |  | 
